The source of these data is patent US10315998B2, “Amide compound and the preparation method and use thereof” (SHENYANG SINOCHEM AGROCHEMICALS R&D CO., LTD, priority 2015, dated 2019).

What all share (assay type): in vivo
The subject of assay [1] is cucumber downy mildew (Pseudoperonospora cubensis (Berk. et Curt.) Rostov). Kind of assay: Protective effect against cucumber downy mildew on potted plants. The conditions noted are these: grading 100-0 (100 no infection, 0 most serious infection), read-out: protectant activity against cucumber downy mildew. How it is done: (§1) Fungicidal activity of the compounds in the present invention against many kinds diseases were carried out. The procedure of fungicidal activity determination is as follows:
(§2) The fungicidal activity was tested in vivo manner on the potted plants. The test compounds of the present invention were dissolved in proper solvent (choosing the solvent according their dissolving ability to the compounds, the solvents could be acetone, methanol or N,N-dimethylformide, etc. The volume ratio between solvent and liquid sprayed was equal to or less than 0.05) and dilute with water contain 0.1% Tween 80 to given concentrations. Compounds of present invention was sprayed onto the leaves of seedling according to the designed concentration. Meanwhile, water was set as the blank control, three replicates were set for each treatment, the spore suspension were inoculated on the second day after treatment, then the plants were placed in an artificial climate chamber (temperature: day 25° C., night 20° C., relative humidity 95 to 100%). 24 hours later, the plants were moved to green house to cultivated. The plants which not need to control humidity was inoculated spore suspension in green house and cultivated in green house directly. The results were investigated after the plants were fully infected relative to the blank control (usually one week). The test resluts grading 100-0 refers to the <A Manual of Assessment Keys for Plant Diseases> which edited by American Phytopathological Society. “100” refer to no infection and “0” refer to the most serious infection
Protective effect against cucumber downy mildew (Pseudoperonospora cubensis (Berk. et Curt.) Rostov)
According the test method described above, parallel test were carried out between compounds 2, 4, 11, 13, 71 and 111 of present invention and the known compounds KC1, KC2, KC3, KC4, KC5 and KC6 (The compounds were self-made and the structure was confirmed by ^1H NMR consistent with the description of the procedures).

In assay [2] the test system is corn rust (Puccinia sorghi Schw.). The experiment in a line: Protective effect against corn rust on potted plants. Conditions: grading 100-0. How it is done:
as §1, §2
Protective Effect Against Corn Rust (Puccinia sorghi Schw.):
According the test method described above, parallel test were carried out between compound 13 of present invention and the known compound KC1.
According the test method described above, parallel test were carried out between compound 11 of present invention and the known compound KC2.
According the test method described above, parallel test were carried out between compound 71 of present invention and the known compounds KC5 and KC6.

The subject of assay [3] is cucumber anthracnose (Colletotrichum orbiculare). The experiment in a line: Protective effect against cucumber anthracnose on potted plants. The conditions noted are these: 400 ppm, foliar spray. How it is done:
as §1
The fungicidal activity was tested in vivo manner on the potted plants. The test compounds of the present invention were dissolved in proper solvent (choosing the solvent according their dissolving ability to the compounds, the solvents could be acetone, methanol or N,N-dimethylformide, etc. The volume ratio between solvent and liquid sprayed was equal to or less than 0.05) and dilute with water contain 0.1% Tween 80 to given concentrations. Compounds of present invention was sprayed onto the leaves of seedling according to the designed concentration. Meanwhile, water was set as the blank control, three replicates were set for each treatment, the spore suspension were inoculated on the second day after treatment, then the plants were placed in an artificial climate chamber (temperature: day 25° C., night 20° C., relative humidity 95 to 100%). 24 hours later, the plants were moved to green house to cultivated. The plants which not need to control humidity was inoculated spore suspension in green house and cultivated in green house directly. The results were investigated after the plants were fully infected relative to the blank control (usually one week). […]

As to `CCCCC(C)Oc1cccc(NC(=O)c2cn(C)nc2C(F)(F)F)c1C` (stereo not shown) [Compound 13], the pest or weed control at 400 ppm in assay [1] is 100%. Besides, the “protectant activity against corn rust” value in assay [2] (6.25 ppm, table 3) stood at 100; in assay [2] (400 ppm, table 3), 100.
As for `CCCC(C)Oc1cccc(NC(=O)c2sc(C(F)(F)F)nc2CC)c1C` (stereo not shown) [Compound 111], in assay [1], the pest or weed control at 400 ppm came out at 100%.
The same measure, in the same setting: the value for `Cc1nn(C)c(Cl)c1C(=O)Nc1cccc(OC(C)C)c1C` [KC4, reference compound] was 0%.
Take `CCCCC(C)Oc1cccc(NC(=O)c2c(C(F)F)nn(C)c2Cl)c1C` (stereo not shown) [Compound 11]: the pest or weed control at 400 ppm in assay [1] stood at 85%. Moreover, the “protectant activity against corn rust” value in assay [2] (0.39 ppm, table 4) is 100; in assay [2] (1.5625 ppm, table 4), 100; in assay [2] (6.25 ppm, table 4), 100.
Take `Cc1nn(C)cc1C(=O)Nc1cccc(OC(C)C)c1C` [KC3, reference compound]: the pest or weed control at 400 ppm in assay [1] was 0%.
As for `Cc1nc(C)c(C(=O)Nc2cccc(OC(C)C)c2)s1` [KC5, reference compound], the pest or weed control at 400 ppm in assay [1] is 0%.
`CCCCC(C)Oc1cccc(NC(=O)c2sc(C)nc2C(F)(F)F)c1C` (stereo not shown) [Compound 71]: the pest or weed control at 400 ppm in assay [1] is 100%. For the same compound, the “protectant activity against corn rust” value in assay [2] (1.56 ppm, table 5) is reported as 100; in assay [2] (6.25 ppm, table 5), 100; in assay [2] (400 ppm, table 5), 100.
Consider `CCCCC(C)Oc1cccc(NC(=O)c2cn(C)nc2C(C)C)c1C` (stereo not shown) [Compound 2], for which the pest or weed control at 400 ppm in assay [1] was 100%.
For `CCCCC(C)Oc1cccc(NC(=O)c2c(C)nn(C)c2Cl)c1C` (stereo not shown) [Compound 4], the “protective effect against cucumber anthracnose” value in assay [3] is listed as at least 80%. In assay [1], the pest or weed control at 400 ppm came out at 100%.
On to `Cc1c(NC(=O)c2c(C(F)(F)F)nn(C)c2Cl)cccc1OC(C)C` [KC2, reference compound], for which the pest or weed control at 400 ppm in assay [1] is 0%. Besides, the “protectant activity against corn rust” value in assay [2] (0.39 ppm, table 4) is given as 0; in assay [2] (1.5625 ppm, table 4), 65; in assay [2] (6.25 ppm, table 4), 100.
Turning to `Cc1c(NC(=O)c2cn(C)nc2C(F)(F)F)cccc1OC(C)C` [KC1, reference compound], the pest or weed control at 400 ppm in assay [1] is 0%. Also, the “protectant activity against corn rust” value in assay [2] (6.25 ppm, table 3) is given as 50; in assay [2] (400 ppm, table 3) it was 100.
